In patent US20150291514A1, “N-Aminosulfonyl Benzamides” (Pfizer Limited, priority 2012, published 2015):
Structures can show the parent of a compound that is named as a salt.

Target: T1, Nav1.7 (or SCN9A) channel (Homo sapiens, UniProt Q15858)
T1 construct: expressed in transfected cells
Assay: Nav1.7 (hSCN9A) PatchXpress electrophysiology assay
Format: cell-based
Settings: estimated IC50 from single point electrophysiology data; PatchXpress platform; HEK cells expressing hSCN9A, held at V1/2 of inactivation; read-out: Nav1.7 EIC50
Description: The ability of the compounds of formula (I) to block the Nav1.7 (or SCN9A) channel were measured using the assay described below.
Human Embryonic Kidney (HEK) cells were transfected with an hSCN9A construct using lipofectamine reagent (Invitrogen), using standard techniques. Cells stably expressing the hSCN9A constructs were identified by their resistance to G-418 (400 μg/ml). Clones were screened for expression using the whole-cell voltage-clamp technique.
HEK cells stably transfected with hSCN9A were maintained in DMEM medium supplemented with 10% heat-inactivated fetal bovine serum and 400 μg/ml G-418 in an incubator at 37° C. with a humidified atmosphere of 10% CO2. For HTS, cells were harvested from flasks by trypsinization and replated in an appropriate multi-well plate (typically 96 or 384 wells/plate) such that confluence would be achieved within 24 hours of plating. For electrophysiological studies, cells were removed from the culture flask by brief trypsinization and re-plated at low density onto glass cover slips. Cells were typically used for electrophysiological experiments within 24 to 72 hours after plating.
Cover slips containing HEK cells expressing hSCN9A were placed in a bath on the stage of an inverted microscope and perfused (approximately 1 ml/minutes) with extracellular solution of the following composition: 138 mM NaCl, 2 mM CaCl2, 5.4 mM KCl, 1mM MgCl2, 10 mM glucose, and 10 mM HEPES, pH 7.4, with NaOH. […] The osmolarity of the extracellular and intracellular solutions was 300 mOsm/kg and 295 mOsm/kg, respectively. All recordings were made at room temperature (22-24° C.) using AXOPATCH 200B amplifiers and PCLAMP software (Axon Instruments, Burlingame, Calif.).
hSCN9A currents in HEK cells were measured using the whole-cell configuration of the patch-clamp technique (Hamill et al., 1981). Uncompensated series resistance was typically 2 to 5 mega ohms and >85% series resistance compensation was routinely achieved. As a result, voltage errors were negligible and no correction was applied. Current records were acquired at 20 to 50 KHz and filtered at 5 to 10 KHz.
HEK cells stably transfected with hSCN9A were viewed under Hoffman contrast optics and placed in front of an array of flow pipes emitting either control or compound-containing extracellular solutions. All compounds were dissolved in dimethyl sulfoxide to make 10 mM stock solutions, which were then diluted into extracellular solution to attain the final concentrations desired. […] The voltage-dependence of inactivation was determined by applying a series of depolarizing prepulses (8 sec long in 10 mV increments) from a negative holding potential. The voltage was then immediately stepped to 0 mV to assess the magnitude of the sodium current. Currents elicited at 0 mV were plotted as a function of prepulse potential to allow estimation of the voltage at which 50% of the channels were inactivated (midpoint of inactivation or V1/2). Compounds were tested for their ability to inhibit hSCN9A sodium channels by activating the channel with a 20 msec voltage step to 0 mV following an 8 second conditioning prepulse to the empirically determined V1/2. Compound effect (% inhibition) was determined by difference in current amplitude before and after application of test compounds. For ease of comparison, “estimated IC-50” (EIC50) values were calculated from single point electrophysiology data by the following equation, (tested concentration, uM)×(100-% inhibition/% inhibition). Inhibition values <20% and >80% were excluded from the calculation.
Electrophysiological assays were conducted with PatchXpress 7000 hardware and associated software (Molecular Devices Corp). All assay buffers and solutions were identical to those used in conventional whole-cell voltage clamp experiments described above. hSCN9A cells were grown as above to 50%-80% confluency and harvested by trypsinization. […]

T1 sequence (Q15858 whole entry): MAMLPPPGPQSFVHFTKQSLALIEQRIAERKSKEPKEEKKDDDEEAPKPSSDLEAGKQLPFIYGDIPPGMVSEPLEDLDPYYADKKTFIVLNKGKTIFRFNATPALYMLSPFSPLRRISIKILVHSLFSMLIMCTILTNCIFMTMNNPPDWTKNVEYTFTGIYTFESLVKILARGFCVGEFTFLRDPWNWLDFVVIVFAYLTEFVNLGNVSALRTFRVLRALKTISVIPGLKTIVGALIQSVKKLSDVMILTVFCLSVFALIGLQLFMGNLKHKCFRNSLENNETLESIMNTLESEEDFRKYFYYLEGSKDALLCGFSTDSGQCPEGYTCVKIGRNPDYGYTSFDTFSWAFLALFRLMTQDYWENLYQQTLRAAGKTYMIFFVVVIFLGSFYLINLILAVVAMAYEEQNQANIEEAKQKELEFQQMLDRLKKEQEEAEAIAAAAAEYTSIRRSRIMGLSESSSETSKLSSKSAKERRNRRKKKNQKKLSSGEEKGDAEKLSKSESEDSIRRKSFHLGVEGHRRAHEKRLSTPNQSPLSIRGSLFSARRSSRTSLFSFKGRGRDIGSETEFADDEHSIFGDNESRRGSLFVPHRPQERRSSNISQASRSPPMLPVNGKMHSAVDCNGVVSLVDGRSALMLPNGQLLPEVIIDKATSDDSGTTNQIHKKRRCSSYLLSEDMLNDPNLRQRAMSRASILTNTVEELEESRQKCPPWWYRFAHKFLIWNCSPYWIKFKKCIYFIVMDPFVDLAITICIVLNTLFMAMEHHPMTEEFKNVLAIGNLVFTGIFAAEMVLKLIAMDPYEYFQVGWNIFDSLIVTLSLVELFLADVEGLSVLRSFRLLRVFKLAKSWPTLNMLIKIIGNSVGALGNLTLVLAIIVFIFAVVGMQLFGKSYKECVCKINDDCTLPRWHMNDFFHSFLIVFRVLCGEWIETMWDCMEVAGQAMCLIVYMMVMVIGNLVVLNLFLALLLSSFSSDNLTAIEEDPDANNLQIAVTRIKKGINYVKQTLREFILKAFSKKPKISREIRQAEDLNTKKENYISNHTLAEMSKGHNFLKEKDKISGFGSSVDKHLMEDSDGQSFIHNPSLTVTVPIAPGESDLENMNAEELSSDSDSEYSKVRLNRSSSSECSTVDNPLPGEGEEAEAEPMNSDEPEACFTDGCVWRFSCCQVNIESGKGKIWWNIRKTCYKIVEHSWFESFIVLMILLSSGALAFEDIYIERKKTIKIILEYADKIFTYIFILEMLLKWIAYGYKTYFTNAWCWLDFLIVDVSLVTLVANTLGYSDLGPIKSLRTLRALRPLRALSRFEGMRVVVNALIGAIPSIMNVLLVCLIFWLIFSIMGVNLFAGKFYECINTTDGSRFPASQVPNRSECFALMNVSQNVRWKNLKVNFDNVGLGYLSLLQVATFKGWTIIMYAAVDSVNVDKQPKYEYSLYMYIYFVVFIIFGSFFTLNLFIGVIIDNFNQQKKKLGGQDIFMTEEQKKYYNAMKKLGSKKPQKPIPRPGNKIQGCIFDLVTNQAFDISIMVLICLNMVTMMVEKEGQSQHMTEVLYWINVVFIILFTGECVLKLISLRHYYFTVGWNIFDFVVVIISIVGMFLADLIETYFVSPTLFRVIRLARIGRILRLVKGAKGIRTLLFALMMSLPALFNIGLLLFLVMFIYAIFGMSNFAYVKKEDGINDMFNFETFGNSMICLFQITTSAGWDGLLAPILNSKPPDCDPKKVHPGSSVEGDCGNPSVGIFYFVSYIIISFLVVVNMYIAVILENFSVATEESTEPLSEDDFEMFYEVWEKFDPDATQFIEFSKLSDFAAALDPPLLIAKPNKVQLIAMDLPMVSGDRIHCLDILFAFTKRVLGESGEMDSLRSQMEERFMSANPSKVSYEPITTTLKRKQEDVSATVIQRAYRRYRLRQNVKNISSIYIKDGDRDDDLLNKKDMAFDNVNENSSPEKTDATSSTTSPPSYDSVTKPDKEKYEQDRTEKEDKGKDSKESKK

Structure (SMILES)	IC50 [nM]
CC(C)COc1ncc(Oc2ccc(C(=O)NS(N)(=O)=O)cc2)cc1Cl [Example 10, N-(aminosulfonyl)-4-[(5-chloro-6-isobutoxypyridin-3-yl)oxy]benzamide diethylamine salt]	6300
CN(C)S(=O)(=O)NC(=O)c1cc(F)c(Oc2cnc(NCC3CC3)c(Cl)c2)cc1F [Example 21, 4-({5-chloro-6-[(cyclopropylmethyl)amino]pyridine-3-yl}oxy)-N-[(dimethylamino)sulfonyl]-2,5-difluorobenzamide formate salt]	600
N#Cc1cc(C(=O)NS(N)(=O)=O)ccc1Oc1ccccc1-c1ccccc1 [Example 18, N-(aminosulfonyl)-4-(biphenyl-2-yloxy)-3-cyanobenzamide diethylamine salt]	34000
NS(=O)(=O)NC(=O)c1ccc(Oc2ccc(Cl)cc2-c2ccnnc2)cc1 [Example 15, N-(aminosulfonyl)-4-(4-chloro-2-pyridazin-4-ylphenoxy)benzamide]	> 3000
CC(C)Oc1ncc(Oc2cc(F)c(C(=O)NS(=O)(=O)N3CCC3)cc2F)cc1Cl [Example 38, N-(azetidin-1-ylsulfonyl)-4-(5-chloro-6-isopropoxypyridin-3-yl)oxy)-2,5-difluorobenzamide diethylamine salt]	180
CNS(=O)(=O)NC(=O)c1cc(F)c(Oc2cnc(OC(C)C)c(Cl)c2)cc1F [Example 31, 4-[(5-chloro-6-isopropoxypyridin-3-yl)oxy]-N-[(methylamino)sulfonyl]-2,5-difluorobenzamide]	6600
COc1cc(Cl)ccc1Oc1ccc(C(=O)NS(N)(=O)=O)cc1 [Example 4, N-(aminosulfonyl)-4-(4-chloro-2-methoxyphenoxy)benzamide]	> 3000
CN(C)S(=O)(=O)NC(=O)c1cc(F)c(Oc2cnc(OCC3CC3)c(Cl)c2)cc1F [Example 32, 4-[(5-chloro-6-(cyclopropylmethoxy)pyridin-3-yl)oxy]-N-[(dimethylamino)sulfonyl]-2,5-difluorobenzamide]	290
CN(C)S(=O)(=O)NC(=O)c1ccc(Oc2ccc(Cl)c(C(F)(F)F)c2)cc1 [Example 1, 4-[4-Chloro-3-(trifluoromethyl)phenoxy]-N-[(dimethylamino)sulfonyl]benzamide diethylamine salt]	2600
O=C(NS(=O)(=O)N1CCC1)c1cc(Cl)c(Oc2ccc(Cl)c(Cl)c2)cc1F [Example 42, N-(azetidin-1-ylsulfonyl)-5-chloro-4-(3,4-dichlorophenoxy)-2-fluorobenzamide]	100
COc1ccccc1Oc1cc(F)c(C(=O)NS(=O)(=O)N(C)C)cc1F [Example 13, N-[(dimethylamino)sulfonyl]-2,5-difluoro-4-(2-methoxyphenoxy)benzamide]	> 1000
CC(Oc1ncc(Oc2cc(F)c(C(=O)NS(=O)(=O)N(C)C)cc2F)cc1Cl)C(F)(F)F (stereo not drawn) [Example 36, 4-((5-chloro-6-((1,1,1-trifluoropropan-2-yl)oxy)pyridin-3-yl)oxy)-N-[(dimethylamino)sulfonyl]-2,5-difluorobenzamide]	660
COc1ccccc1Oc1cc(F)c(C(=O)NS(=O)(=O)N(C)C)cc1Cl [Example 12, 5-chloro-N-[(dimethylamino)sulfonyl]-2-fluoro-4-(2-methoxyphenoxy)benzamide diethylamine salt]	> 1000
COc1cccc(Oc2ccc(C(=O)NS(=O)(=O)N(C)C)cc2)c1 [Example 9, N-[(dimethylamino)sulfonyl[-4-(3-methoxyphenoxy)benzamidediethylamine salt]	> 30000
CN(C)S(=O)(=O)NC(=O)c1cc(F)c(Oc2cc(C(F)(F)F)c(Cl)cn2)cc1F [Example 35, 4-((5-chloro-4-(trifluoromethyl)pyridin-2-yl)oxy)-N-(N,N-dimethylsulfamoyl)-2,5-difluorobenzamide]	2500
